The source of these data is patent US9808470B2, “Estrogenic components for use in the treatment of neurological disorders” (UNIVERSITE DE LIEGE, priority 2012, dated 2017).

What all share (type): in vivo
The nature of data set [1]: Ex.4 therapeutic HIE rat model: body weight. Particulars: PND14. As to the method:
To study the therapeutic effect of estetrol, newborn rat pups were assigned to one of the following 6 groups at postnatal day 7: sham group (n=29), vehicle group (n=20), 1 mg/kg E4 group (n=16), 5 mg/kg E4 group (n=19), 10 mg/kg day E4 (n=17) and 50 mg/kg day E4 group (n=15). At postnatal day 7 animals were anesthetized with isoflurane (induction, 3.0%; maintenance, 1.5%), and the rat pups from vehicle and E4 groups passed through surgery encompassing left common carotid artery double ligation and cut. After surgery, the pups were returned to their dams and allowed to recover for 1 hour. The pups were then placed in a humidified hypoxic in vivo cabinet (CoyLab). Hypoxia was produced by the inhalation of 11%-8% of oxygen balanced by nitrogen at decreased concentration of oxygen for 20 minutes, followed by inhalation of 8% oxygen and 92% nitrogen at constant concentration for 35 minutes. All the manipulations were performed at 37° C.
Upon retrieval from the hypoxia chamber the rat pups were injected intraperitoneally either by vehicle (vehicle group) or by E4 (1 mg/kg, 5 mg/kg, 10 mg/kg or 50 mg/kg) in accordance to the group assignment. The animals from the sham group went through similar procedures but proceeded neither left common carotid artery ligation and cut followed by hypoxia nor vehicle or estetrol administration. Rat pups recovered with their dams until being sacrificed at postnatal day 14.
To evaluate the post-operative well-being of rat pups due to the performed manipulations and estetrol treatment, the post-operative body weight was measured at postnatal days 7 and 14.

The subject of data set [2] is glial fibrillary acidic protein (GFAP). Briefly: Ex.3 neuroprotective HIE rat model: blood serum GFAP ELISA. Particulars: 50 mg/kg E4 ip PND4-7 before HI; PND14. As to the method:
Blood was withdrawn, centrifuged and the serum samples were stored at −80° C.
ELISAs for detecting the brain damage markers S100B protein (Catalog# CSB-E08066r, Cusabio Biotech Co., LTD, China), and glial fibrillary acidic protein (GFAP) (Catalog# E90068Ra, Uscn Life sciences Inc., China) in blood serum samples were performed according to the manufacturers' recommendations.
Newborn rat pups were assigned to one of the following 6 groups from postnatal day 4: Sham group (n=24), Vehicle group (n=14), E4 1 mg/kg/per day group (n=11), E4 5 mg/kg/per day group (n=14), E4 10 mg/kg/per day group (n=14), or E4 50 mg/kg/per day group (n=19). From postnatal day 4, rat pups were intraperitoneally injected either vehicle (Vehicle group) or E4 (1, 5, 10, or 50 mg/kg/per day in accordance to the E4 group assignment) or neither vehicle nor E4 (Sham group). At day 7, 30 minutes after last injection, animals were anesthetized with isoflurane (induction, 3.0%; maintenance, 1.5%), and the rat pups from Vehicle and E4 groups passed through surgery encompassing left common carotid artery double ligation and cut. After the procedure, the pups were returned to their dams and were allowed to recover for 1 hour. The pups were then placed in the humidified hypoxic in vivo cabinet (CoyLab, Grass Lake, Mich., USA). […]

For data set [3] the test system is unchanged. Kind of data set: Ex.8 therapeutic HIE rat model: blood serum GFAP ELISA. The settings on record: 10 mg/kg/day E4, PND14. As to the method:
(§1) To study the therapeutic effect of estetrol, newborn rat pups were assigned to one of the following 14 groups at postnatal day 7 (FIG. 23(B)): Sham group (n=12), Vehicle (n=15), 5 mg/kg/day E4 (n=11), 10 mg/kg/day E4 (n=11), 5 mg/kg/day E4+1.6 mg/kg/day PROG (n=11), 10 mg/kg/day E4+1.6 mg/kg/day PROG (n=11), 5 mg/kg/day E4+16 mg/kg/day PROG (n=11), 10 mg/kg/day E4+16 mg/kg/day PROG (n=13), 5 mg/kg/day E4+136 ng//kg/day E2 (n=11), 10 mg/kg/day E4+136 ng/kg/day E2 (n=11), 5 mg/kg/day E4+1.6 mg/kg/day PROG+136 ng/kg/day E2 (n=12), 10 mg/kg/day E4+1.6 mg/kg/day PROG+136 ng/kg/day E2 (n=11), 5 mg/kg/day E4+16 mg/kg/day PROG+136 ng/kg/day E2 (n=11), 10 mg/kg/day E4+16 mg/kg/day PROG+136 ng/kg/day (n=12) groups. […] After surgery, the pups were returned to their dams and allowed to recover for 1 hour. The pups were then placed in a humidified hypoxic in vivo cabinet (CoyLab). Hypoxia was produced by the inhalation of 11%-8% of oxygen balanced by nitrogen at decreased concentration of oxygen for 20 minutes, followed by inhalation of 8% oxygen and 92% nitrogen at constant concentration for 35 minutes. All the manipulations were performed at 37° C. Upon retrieval from the hypoxia chamber the rat pups were injected ip once either by vehicle (vehicle group) or by in accordance to the group assignment. […]
(In general: ELISA stands for enzyme-linked immunosorbent assay.)

The nature of data set [4]: Ex.8 therapeutic HIE rat model: brain weight and brain-body weight ratio. Particulars: 10 mg/kg/day E4, PND14, vs vehicle. As to the method:
All the compounds used for in vivo studies were dissolved in absolute Ethanol (ETOH) and further diluted in saline solution at a final concentration of ETOH 10%. An equal volume (5 μ1/g) of the solution was injected intraperitoneally (ip) into the pups from study groups. Rat pups from the vehicle group were ip injected a saline solution containing 10% ETOH. Rat pups from the Sham group were not injected at all.
as §1, with “(CoyLab).” for “(CoyLab). Hypoxia was produced by the inhalation of 11%-8% of oxygen balanced by nitrogen at decreased concentration of oxygen for 20 minutes, followed by inhalation of 8% oxygen and 92% nitrogen at constant concentration for 35 minutes. All the manipulations were performed at 37° C. Upon retrieval from the hypoxia chamber the rat pups were injected ip once either by vehicle (vehicle group) or by in accordance to the group assignment.”

`C[C@]12CC[C@@H]3c4ccc(O)cc4CC[C@H]3[C@@H]1[C@@H](O)[C@@H](O)[C@@H]2O` [E4, 1,3,5(10)-estratrien-3,15α,16α,17β-tetrol]: the body weight result was “significantly higher body weight than the vehicle group” in data set [1] (1 mg/kg E4 single ip dose after HI, vs vehicle); “Sham operated animals showed significantly higher body weight” in data set [1] (5 mg/kg E4 single ip dose after HI, vs sham); “significantly higher body weight than the vehicle group” in data set [1] (5 mg/kg E4 single ip dose after HI, vs vehicle); “significantly higher body weight than the vehicle group” in data set [1] (10 mg/kg E4 single ip dose after HI, vs vehicle); “significantly higher body weight than the vehicle group” in data set [1] (50 mg/kg E4 single ip dose after HI, vs vehicle). Moreover, the “concentration of GFAP in blood serum” value in data set [2] is 300.388 ± 31.232 pg/mL. In addition, the “GFAP protein concentration in blood serum” value in data set [3] was 10806.52 ± 1015.19 pg/mL. Also, the brain weight result in data set [4] was “significantly higher brain weight than the vehicle alone”.
